Assay results reported in patent publication US8957093B2, “N-biphenylmethylindole modulators of PPARG” (The Scripps Research Institute, priority 2011, dated 2015).
Read-outs that look alike come from different tables or passages of the source.

Tests used:
GST-PPARG-LBD = GST-PPARG-LBD (Homo sapiens (Human), UniProt P37231); test: Lanthascreen PPARG competitive binding assay (Invitrogen, TR-FRET); settings: Lanthascreen competitive binding; NA = not active; inc = incomplete curve; read-out: IC50 (nM) Lantha
Chain of GST-PPARG-LBD (P37231 238-503): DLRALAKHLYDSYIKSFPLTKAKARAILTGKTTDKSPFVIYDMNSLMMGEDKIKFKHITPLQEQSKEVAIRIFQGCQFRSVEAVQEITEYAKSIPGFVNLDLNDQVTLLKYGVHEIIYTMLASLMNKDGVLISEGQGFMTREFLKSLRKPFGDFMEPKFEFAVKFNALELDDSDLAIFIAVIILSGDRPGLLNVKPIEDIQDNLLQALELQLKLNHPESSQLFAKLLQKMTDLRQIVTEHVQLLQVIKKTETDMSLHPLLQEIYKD
Procedure, shortened: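 TR-FRET competitive binding of GST-PPARG-LBD with 5 nM Tb-GST-antibody and 5 nM Fluormone Pan-PPAR Green tracer, in TR-FRET buffer C. Compound serially diluted from 10 μM, 2 h dark incubation, in triplicate. Readout is 520/490 nm emission ratio (340 nm excitation), expressed as fold change over 2% DMSO control.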

[1] = system: PPARG (murine PPARg2 or full-length human PPARG, 3xPPRE-luciferase reporter); test: Cell-based PPRE-luciferase transactivation assay in COS-1 cells; settings: for EC50: read-out: EC50 (nM) PPRE
Experimental: Cell-Based Transactivation Assay:
PPRE is a DNA that contains a binding site for PPARG; thus PPRE is a PPAR response element, used herein as a promoter reporter. The binding site is a DR1 response element with the sequence AGGTCA repeated 3 times in tandem and then fused to a construct for luciferase.
Thus, PPRE is the basis of the cell based transactivation assay described below. The plasmid DNA is co-transfected along with a plasmid for PPARG into COS-1 cells. After an overnight incubation, cells are treated with DMSO or compounds.
Confluent COS-1 cells were transfected with 4.5 μg murine PPARg2-pSV Sport or full-length human PPAR9-pSport6, 4.5 μg 3×PPRE-luciferase reporter and 27 μL X-treme Gene 9 transfection reagent in serum-free opti-mem media (Gibco), followed by overnight incubation at 37° C., 5% CO2. Transfected cells were plated in white Perkin Elmer 384-well plates and incubated 4 hours. […] After 18 hour incubation, treated cells were developed with Brite Lite Plus (Perkin Elmer) and read in 384-well Luminescence Perkin Elmer EnVision Multilabel plate reader. Graphs were plotted in triplicate in GraphPad Prism Software as fold change of treated cells over DMSO control cells.

[2] = PPRE-luciferase, COS-1 cells, NA = not active

Row | SMILES | IC50 (GST-PPARG-LBD) | PPRE transactivation (% in parentheses) ([1]; rosiglitazone = 100%) | EC50 [1, 2] | PPRE transactivation (% in parentheses) [1] | EC50 [1]
1 | C[C@H](NC(=O)c1ccc2c(ccn2Cc2ccc(-c3ccc(O)cc3)cc2)c1)c1ccc([N+](=O)[O-])cc1 [Example 47, (S)-1-((4′-Hydroxy-[1,1′-biphenyl]-4-yl)methyl)-N-(1-(4-nitrophenyl)ethyl)-1H-indole-5-carboxamide] | 300 nM | (0%) |  |  | 
2 | Cc1c(C)n(Cc2ccc(-c3ccccc3C(=O)O)cc2)c2ccc(C(=O)NCc3ccc(-c4ccccc4)cc3)cc12 [Example 102, 4′-((5-(biphenyl-4-ylmethylcarbamoyl)-2,3-dimethyl-1H-indol-1-yl)methyl)biphenyl-2-carboxylic acid] | 247 nM | (29%) | 1.2 nM |  | 
3 | C[C@H](NC(=O)c1ccc2c(ccn2Cc2ccc(-c3ccccc3C(=O)O)cc2)c1)c1ccc(Br)cc1 [Example 130, (S)-4′-((5-((1-(4-Bromophenyl)ethyl)carbamoyl)-1H-indol-1-yl)methyl)-[1,1′-biphenyl]-2-carboxylic acid] | 163 nM | (0%) |  |  | 
4 | CCC(NC(=O)c1ccc2c(ccn2Cc2ccccc2-c2ccc(C(=O)O)cc2)c1)c1ccccc1 (stereo not shown) [Example 70, 2′-((5-((1-Phenylpropyl)carbamoyl)-1H-indol-1-yl)methyl)-[1,1′-biphenyl]-4-carboxylic acid] | 10 nM |  |  | (0%) | 
5 | Cc1c(C)n(Cc2ccc(-c3ccccc3C(=O)O)cc2)c2ccc(C(=O)N[C@@H]3COc4ccccc4C3)cc12 [Example 250, (S)-4′-((5-(chroman-3-ylcarbamoyl)-2,3-dimethyl-1H-indol-1-yl)methyl)-[1,1′-biphenyl]-2-carboxylic acid] | 88 nM | (0%) |  |  | 
6 | Cc1c(C)n(Cc2ccc(-c3ccccc3C(=O)O)cc2)c2ccc(C(=O)NCc3ccc(S(N)(=O)=O)cc3)cc12 [compound 17, 4′-((2,3-Dimethyl-5-(4-sulfamoylbenzylcarbamoyl)-1H-indol-1-yl)methyl)biphenyl-2-carboxylic acid] | 300 nM | (0%) |  |  | 
7 | Cc1ccc(CNC(=O)c2ccc3c(c2)c(C)c(C)n3Cc2ccc(-c3ccccc3C(=O)O)cc2)o1 [Example 84, 4′-((2,3-dimethyl-5-((5-methylfuran-2-yl)methylcarbamoyl)-1H-indol-1-yl)methyl)biphenyl-2-carboxylic acid] | 12 nM | (17%) | 40 nM |  | 
8 | COc1ccc(CNC(=O)c2ccc3c(c2)c(C)c(C)n3Cc2ccc(-c3ccccc3C(=O)O)cc2)cc1OC [compound 24, 4′-((5-(3,4-Dimethoxybenzylcarbamoyl)-2,3-dimethyl-1H-indol-1-yl)methyl)biphenyl-2-carboxylic acid] | 125 nM | (0%) |  |  | 
9 | Cc1c(C)n(Cc2ccc(-c3ccccc3C(=O)O)cc2)c2ccc(C(=O)NC(C)CCc3ccccc3)cc12 (stereo not shown) [Example 117, 4′-((2,3-dimethyl-5-(4-phenylbutan-2-ylcarbamoyl)-1H-indol-1-yl)methyl)biphenyl-2-carboxylic acid] | 3 nM | (17%) | 3 nM |  | 
10 | CCC[C@H](NC(=O)c1ccc2c(c1)c(C)c(C)n2Cc1ccc(-c2ccccc2C(=O)O)cc1)c1ccccc1 [Example 114, (S)-4′-((2,3-dimethyl-5-(1-phenylbutylcarbamoyl)-1H-indol-1-yl)methyl)biphenyl-2-carboxylic acid] | 0.8 nM | (14%) | 8 nM |  | 
11 | Cc1c(C)n(Cc2ccc(-c3ccccc3C(=O)O)cc2)c2ccc(C(=O)N[C@@H](C)c3cccc(Br)c3)cc12 [compound 30, (S)-4′-((5-((1-(3-Bromophenyl)ethyl)carbamoyl)-2,3-dimethyl-1H-indol-1-yl)methyl)-[1,1′-biphenyl]-2-carboxylic acid] | 58 nM |  |  | (18%) | 20 nM
12 | COC(=O)c1ccc(CNC(=O)c2ccc3c(c2)c(C)c(C)n3Cc2ccc(-c3ccccc3C(=O)O)cc2)cc1 [compound 16, 4′-((5-(4-(Methoxycarbonyl)benzylcarbamoyl)-2,3-dimethyl-1H-indol-1-yl)methyl)biphenyl-2-carboxylic acid] | 2 nM | (23%) | 59 nM |  | 
13 | Cc1c(C)n(Cc2ccc(-c3ccccc3C(=O)O)cc2)c2ccc(C(=O)N[C@@H](CO)c3ccccc3)cc12 [Example 79, (R)-4′-((5-(2-hydroxy-1-phenylethylcarbamoyl)-2,3-dimethyl-1H-indol-1-yl)methyl)biphenyl-2-carboxylic acid] | 37 nM | (25%) | 297 nM |  | 
14 | COc1cccc([C@H](C)NC(=O)c2ccc3c(c2)c(C)c(C)n3Cc2ccc(-c3ccccc3C(=O)O)cc2)c1 [compound 21, (S)-4′-((5-(1-(3-Methoxyphenyl)ethylcarbamoyl)-2,3-dimethyl-1H-indol-1-yl)methyl)biphenyl-2-carboxylic acid] | 13 nM | (12%) | 46 nM |  | 
15 | CCC(NC(=O)c1ccc2c(c1)c(C)c(C)n2Cc1ccc(-c2ccccc2-c2nnn[nH]2)cc1)c1ccccc1 (stereo not shown) [Example 36, 1-((2′-(1H-Tetrazol-5-yl)-[1,1′-biphenyl]-4-yl)methyl)-2,3-dimethyl-N-(1-phenylpropyl)-1H-indole-5-carboxamide] | 6 nM | (23%) | 2 nM |  | 
16 | Cc1c(C)n(Cc2ccc(-c3ccccc3C(=O)O)cc2)c2ccc(C(=O)NCc3cccc(OC(F)(F)F)c3)cc12 [compound 5, 4′-((2,3-Dimethyl-5-(3-(trifluoromethoxy)benzylcarbamoyl)-1H-indol-1-yl)methyl)biphenyl-2-carboxylic acid] | 157 nM | (0%) |  |  | 
17 | Cc1c(C)n(Cc2ccc(-c3ccccc3C(=O)O)cc2)c2ccc(C(=O)NCc3ccccc3Cl)cc12 [Example 108, 4′-((5-(2-chlorobenzylcarbamoyl)-2,3-dimethyl-1H-indol-1-yl)methyl)biphenyl-2-carboxylic acid] | 6 nM | (15%) | 535 nM |  | 
18 | Cc1c(C)n(Cc2ccc(-c3ccccc3C(=O)O)cc2)c2ccc(C(=O)NCc3cccc(Cl)c3)cc12 [Example 109, 4′-((5-(3-chlorobenzylcarbamoyl)-2,3-dimethyl-1H-indol-1-yl)methyl)biphenyl-2-carboxylic acid] | 2 nM | (21%) | 12 nM |  | 
19 | Cc1c(C)n(Cc2ccc(-c3ccccc3C(=O)O)cc2)c2ccc(C(=O)NCc3ccc4c(c3)OCO4)cc12 [Example 78, 4′-((5-(benzo[d][1,3]dioxol-5-ylmethylcarbamoyl)-2,3-dimethyl-1H-indol-1-yl)methyl)biphenyl-2-carboxylic acid] | 33 nM | (30%) | 1000 nM |  | 
20 | Cc1c(C)n(Cc2ccc(-c3ccccc3C(=O)O)cc2)c2ccc(C(=O)NC3CCCC3)cc12 [Example 90, 4′-((5-(cyclopentylcarbamoyl)-2,3-dimethyl-1H-indol-1-yl)methyl)biphenyl-2-carboxylic acid] | 25 nM | (18%) | > 1000 nM |  | 
21 | Cc1c(C)n(Cc2ccc(-c3ccccc3C(=O)O)cc2)c2ccc(C(=O)NCc3cccc(N)c3)cc12 [Example 80, 4′-((5-(3-aminobenzylcarbamoyl)-2,3-dimethyl-1H-indol-1-yl)methyl)biphenyl-2-carboxylic acid] | 13 nM | (20%) | 2700 nM |  | 
22 | Cc1c(C)n(Cc2ccc(-c3ccccc3C(=O)O)cc2)c2ccc(C(=O)NC(C)(C)c3ccccc3)cc12 [compound 25, 4′-((2,3-Dimethyl-5-((2-phenylpropan-2-yl)carbamoyl)-1H-indol-1-yl)methyl)-[1,1′-biphenyl]-2-carboxylic acid] | 0.5 nM | (15%) | 2.5 nM |  | 
23 | CCC(NC(=O)c1ccc2c(ccn2Cc2cccc(-c3ccc(C(=O)O)cc3)c2)c1)c1ccccc1 (stereo not shown) [Example 67, 3′-((5-((1-Phenylpropyl)carbamoyl)-1H-indol-1-yl)methyl)-[1,1′-biphenyl]-4-carboxylic acid] | 2 nM | (8%) | 2 nM |  | 
24 | Cc1c(C)n(Cc2ccc(-c3ccccc3C(=O)O)cc2)c2ccc(C(=O)NCc3ccc(N)cc3)cc12 [Example 95, 4′-((5-(4-aminobenzylcarbamoyl)-2,3-dimethyl-1H-indol-1-yl)methyl)biphenyl-2-carboxylic acid] | 4 nM | (0%) |  |  | 
